For one data set, the system named is HT-29 (colon). In words: Anticancer assay in vitro (sulforhodamine B), HT-29. The format is cell-based. As to conditions: for TGI: HT-29, total growth inhibition; for GI50: HT-29, 48 h, SRB. The protocol: (§1) The experiments were performed in triplicate.
Another data set concerns OVCAR-3 (ovarian). In words: Anticancer assay in vitro (sulforhodamine B), OVCAR-3. The format is cell-based. As to conditions: for GI50: OVCAR-3, 48 h, SRB; for TGI: OVCAR-3, total growth inhibition, 48 h. On the procedure: as §1
Another data set has as its system MCF-7 (breast). In words: Anticancer assay in vitro (sulforhodamine B), MCF-7. As to conditions: for GI50: MCF-7, 48 h, SRB. The format is cell-based. The protocol: as §1
Data set [1] concerns NCI-H460 (lung, non-small cells). In words: cells. The format is cell-based. As to conditions: for GI50: NCI-H460, 48 h, SRB; for TGI: NCI-H460, total growth inhibition, 48 h. The protocol:
as §1

A further data set relates to K-562 (leukemia). In words: cells. The format is cell-based. As to conditions: for GI50: K-562, 48 h, SRB. The protocol:
as §1

The subject of another data set is PC-3 (prostate). In words: cells. The format is cell-based. As to conditions: for GI50: PC-3, 48 h, SRB; for TGI: PC-3, total growth inhibition, 48 h. On the procedure:
as §1

A further data set concerns 786-0 (renal). In words: cells. The format is cell-based. Conditions: for TGI: 786-0, total growth inhibition, 48 h; for GI50: 786-0, 48 h, SRB. On the procedure:
as §1

The subject of data set [2] is NCI-ADR/RES (breast expressing the multiple drug resistance phenotype). In words: cells. The format is cell-based. As to conditions: NCI/ADR-RES, 48 h; for GI50: SRB; for TGI: total growth inhibition. On the procedure:
as §1

A further data set concerns HaCaT (keratinocytes). In words: Anticancer assay in vitro (sulforhodamine B), HaCaT. The format is cell-based. Conditions: 48 h; for GI50: SRB; for TGI: total growth inhibition. On the procedure: as §1
Assay in data set [3]: as above
The format is cell-based. Conditions: human, HaCaT keratinocytes, killing 50% of cells, read-out: LC50. The protocol:
as §1

A further data set deals with U251 (glioma, CNS). In words: cells. As to conditions: for TGI: U251, total growth inhibition, 48 h. The protocol:
The GI50 values (growth inhibitory activity) (Table 1) refer to the drug concentration that produces a 50% reduction of cellular growth compared with the untreated control cells. The TGI (cytostatic activity) and LC50 (cytotoxic activity) values (Table 2) refer to the drug concentration required for total growth inhibition and killing 50% of the cells, respectively.
The synthesized compounds were assessed in the following ten human tumor cell lines from various tissues kindly provide by the National Cancer Institute (Frederick, MD, USA): U251 (glioma, CNS), MCF-7 (breast), NCI-ADR/RES (breast expressing the multiple drug resistance phenotype), 786-0 (renal), NCI-H460 (lung, non-small cells), PC-3 (prostate), OVCAR-3 (ovarian), HT-29 (colon), K-562 (leukemia) and HaCaT (keratinocytes). Stock cultures were grown in media containing 5 mL of RPMI 1640 (Gibco BRL) supplemented with 5% fetal bovine serum. Gentamicin ([…]) was added to the experimental cultures. Cells in 96-well plates (100 µL cells/well) were exposed to sample concentrations in DMSO/RPMI (0.25, 2.5, 25, and 250 µg/mL) at 37 °C and 5% CO2 for 48 h. […] Next, cells were fixed with 50% trichloroacetic acid, and cell proliferation was determined by spectrophotometric quantification (540 nm) of cellular protein content employing the sulforhodamine B assay. Doxorubicin (0.025–25 µg/mL) was used as a positive control. Three measurements were obtained: first at time point zero (T0, at the beginning of incubation) and then 48 h post-incubation for both the compound-free (C) and tested (T) cells. Cell proliferation was determined using the equation 100 × [(T − T0)/C − T0]. A cytostatic effect was observed when T ≥ T0, while a cytocidal effect occurred when T < T0. The experiments were performed in triplicate.

For data set [4], the system named is ten human tumor cell lines. In words: Anticancer assay in vitro (sulforhodamine B), statements over the panel of cell lines. As to conditions: bound or range over all (for 4: nine) human tumor cell lines; read-out: GI50 values over the cell lines tested. The format is cell-based. The protocol: as §1
Setting [5] is: MCF-7, total growth inhibition, 48 h.
[6] abbreviates: K-562, total growth inhibition, 48 h.

≈ marks a conversion by molar mass, not a printed value. A value given as a limit tells only on which side of the number the result lay.

3 compounds from paper PMC6272127, “Synthesis, Antiproliferative Activity and Molecular Properties Predictions of Galloyl Derivatives” (Molecules, 2015) can be followed below.

By TGI is commonly meant the concentration at which net growth stops. Lower therefore signals more potent growth arrest. What is called GI50 is the concentration giving 50% growth inhibition.

With `NNC(=O)c1cc(O)c(O)c(O)c1` [Compound 3, Galloyl hydrazide], the TGI in the data set with HT-29 (colon) (48 h) came to 3.27 µg/mL (≈ 17.8 µM); in the data set with OVCAR-3 (ovarian) it was 9.77 µg/mL (≈ 53.1 µM); in the data set with MCF-7 (breast) (MCF-7, as printed in the text), 2360 nM; with MCF-7 (breast) (setting [5]) it was 2.36 µg/mL; in [1], 17.35 µg/mL (≈ 94.2 µM); in the data set with PC-3 (prostate) it was 18.31 µg/mL (≈ 99.4 µM). Besides, the total growth inhibition concentration (TGI) in the data set with 786-0 (renal) came to 17.98 µg/mL (≈ 97.6 µM); in data set [2] it was 2.56 µg/mL (≈ 13.9 µM); in the data set on HaCaT (keratinocytes), 29.02 µg/mL (≈ 158 µM); in the data set with U251 (glioma, CNS), 6.13 µg/mL (≈ 33.3 µM). The concentration for 50% growth inhibition (GI50) was 1210 nM in the data set on HT-29 (colon) (Homo sapiens); at most 890 nM with OVCAR-3 (ovarian) (Homo sapiens); 880 nM with OVCAR-3 (ovarian); 850 nM in the data set on MCF-7 (breast) (Homo sapiens, MCF7); 5540 nM in data set [1] (Homo sapiens); 1170 nM in the data set with K-562 (leukemia) (Homo sapiens, K562). For the same compound, the GI50 in the data set with PC-3 (prostate) (Homo sapiens) came out at 3530 nM; with 786-0 (renal) (Homo sapiens), 1560 nM; in data set [2] (Homo sapiens), 910 nM; in the data set on HaCaT (keratinocytes) (Homo sapiens), 2500 nM; in the data set with U251 (glioma, CNS) (Homo sapiens, U-251, 48 h), 1110 nM. Moreover, the CC50 with HT-29 (colon) (Homo sapiens, HT-29, killing 50% of cells, 48 h, read-out: LC50 (the source's name)) was determined as 26.2 µg/mL (≈ 142 µM); with U251 (glioma, CNS) (Homo sapiens, U-251, 48 h, read-out: LC50), 31.4 µg/mL (≈ 170 µM). Besides, the CC50 at 48 h in [3] is above 100 µg/mL.
For `CN(C)c1ccc(/C=N/NC(=O)c2cc(O)c(O)c(O)c2)cc1` [Compound 5, N'-(4-Dimethylaminobenzylidene)galloyl hydrazide], the TGI with HT-29 (colon) (48 h) came out at 48.50 µg/mL (≈ 154 µM); with OVCAR-3 (ovarian), 41.52 µg/mL (≈ 132 µM); in the data set with MCF-7 (breast) (setting [5]), 20.26 µg/mL; in the data set on K-562 (leukemia) (K-562, as printed in the text), 8980 nM; in the data set on K-562 (leukemia) (setting [6]), 8.98 µg/mL; in [2], 83.07 µg/mL (≈ 263 µM). In the data set with HaCaT (keratinocytes), this compound registered a TGI of 18.41 µg/mL (≈ 58.4 µM). Moreover, the concentration for 50% growth inhibition (GI50) in the data set on HT-29 (colon) (Homo sapiens) was 16200 nM; with OVCAR-3 (ovarian) (Homo sapiens) it was 2930 nM; with MCF-7 (breast) (Homo sapiens, MCF7) it was 8610 nM; in data set [1] (Homo sapiens), 21600 nM; in the data set on K-562 (leukemia) (Homo sapiens, K562), 2050 nM; in the data set on 786-0 (renal) (Homo sapiens), 8930 nM. The GI50 in [2] (Homo sapiens) was found to be 4680 nM; with HaCaT (keratinocytes) (Homo sapiens), 4050 nM; with U251 (glioma, CNS) (Homo sapiens, U-251, 48 h), 24100 nM. The CC50 in the data set on MCF-7 (breast) (Homo sapiens, MCF7, MCF-7, killing 50% of cells, 48 h, read-out: LC50 (the source's name)) turned out to be 47.9 µg/mL (≈ 152 µM). The CC50 at 48 h in data set [3] was determined as 55.3 µg/mL (≈ 175 µM).
For “Galloyl-2-thioxo-1,3,4-oxadiazole [Compound 9]”, the concentration for 50% growth inhibition (GI50) in [4] was below 8900 nM; with HT-29 (colon), 2610 nM; in the data set on OVCAR-3 (ovarian), 890 nM; in the data set with MCF-7 (breast) it was 1080 nM; in [1], 8770 nM; with K-562 (leukemia), 1720 nM. Also, the GI50 with PC-3 (prostate) was found to be 6050 nM; in the data set with 786-0 (renal) it was 8900 nM; in data set [2], 2830 nM; in the data set on HaCaT (keratinocytes), 2250 nM; with U251 (glioma, CNS) (U251, 48 h, SRB), 4200 nM. The LC50 entry is given as “(58.99) µg/mL” in the data set on HT-29 (colon); “(58.99) µg/mL” in the data set with OVCAR-3 (ovarian); “(42.67) µg/mL” in [1]; “(58.99) µg/mL” in the data set on K-562 (leukemia); “(56.99) µg/mL” in the data set on PC-3 (prostate); “(41.26) µg/mL” in the data set on U251 (glioma, CNS). Further, the TGI was 13.74 µg/mL in the data set on HT-29 (colon) (48 h); 13.62 µg/mL with OVCAR-3 (ovarian); 5.06 µg/mL with MCF-7 (breast) (setting [5]); 19.43 µg/mL in data set [1]; 11.35 µg/mL with K-562 (leukemia) (setting [6]); 18.09 µg/mL in the data set with PC-3 (prostate). Moreover, the TGI came to 24.68 µg/mL in the data set on 786-0 (renal); 15.86 µg/mL in data set [2]; 16.53 µg/mL in the data set with HaCaT (keratinocytes); 14.58 µg/mL in the data set on U251 (glioma, CNS).
